Converted amounts (≈) assume the structure as drawn. Where two headings read alike, the source gives them in different places.
Legend:
[1] = tested on: Mycobacterium kansasii 6509/96; assay: MIC, micro method in Šula's semisynthetic medium, M. kansasii clinical isolate; assay type: cell-based; settings: read-out: MIC M. kansasii 6509/96
[2] = tested on: Mtb 331/88 (i.e., H37Rv); assay: MIC, micro method in Šula's semisynthetic medium, drug-susceptible Mtb; assay type: cell-based, Mycobacterium tuberculosis; settings: Mycobacterium tuberculosis, H37RV
[3] = tested on: Mycobacterium avium 330/88; assay: MIC, micro method in Šula's semisynthetic medium, M. avium; assay type: cell-based
[4] = tested on: HepG2 cells; assay: Cytotoxicity on HepG2 cell line (CellTiter 96); assay type: cell-based, human; settings: Homo sapiens, HepG2, 24 h, read-out: IC50 HepG2
[5] = 330/88, 336 h, read-out: MIC M. avium 330/88
[6] = 330/88, 504 h, read-out: MIC M. avium 330/88

Row | Structure (SMILES) | MIC ([1]; 6509/96, 168 h) | MIC ([1]; 6509/96, 336 h) | MIC ([1]; 6509/96, 504 h) | MIC ([2]; 336 h, 14 days) | MIC ([2]; 504 h, 21 days) | MIC [3, 5] | MIC [3, 6] | IC50 [4] | MIC ([3]; 330/88, read-out: MIC M. avium)
1 | CNC(=O)NNC(=O)c1cc([N+](=O)[O-])cc([N+](=O)[O-])c1 [Compound 4a, 2-(3,5-Dinitrobenzoyl)-N-methylhydrazine-1-carboxamide] | 250 µM (≈ 70.8 µg/mL) | 500 µM (≈ 142 µg/mL) | 500 µM (≈ 142 µg/mL) | > 32 µM | > 32 µM | 1000 µM (≈ 283 µg/mL) | 1000 µM (≈ 283 µg/mL) |  | 
2 | CCNC(=O)NNC(=O)c1cc([N+](=O)[O-])cc([N+](=O)[O-])c1 [Compound 4b, 2-(3,5-Dinitrobenzoyl)-N-ethylhydrazine-1-carboxamide] | 64 µM (≈ 19 µg/mL) | 125 µM (≈ 37.2 µg/mL) | 125 µM (≈ 37.2 µg/mL) | 32 µM (≈ 9.51 µg/mL) | > 32 µM | 1000 µM (≈ 297 µg/mL) | 1000 µM (≈ 297 µg/mL) |  | 
3 | CCCNC(=O)NNC(=O)c1cc([N+](=O)[O-])cc([N+](=O)[O-])c1 [Compound 4c, 2-(3,5-Dinitrobenzoyl)-N-propylhydrazine-1-carboxamide] | 8 µM (≈ 2.49 µg/mL) | 16 µM (≈ 4.98 µg/mL) | 16 µM (≈ 4.98 µg/mL) | 16 µM (≈ 4.98 µg/mL) | 16 µM (≈ 4.98 µg/mL) | 1000 µM (≈ 311 µg/mL) | 1000 µM (≈ 311 µg/mL) |  | 
4 | CCCCNC(=O)NNC(=O)c1cc([N+](=O)[O-])cc([N+](=O)[O-])c1 [Compound 4d, N-Butyl-2-(3,5-dinitrobenzoyl)hydrazine-1-carboxamide] | 2 µM (≈ 0.651 µg/mL) | 4 µM (≈ 1.3 µg/mL) | 4 µM (≈ 1.3 µg/mL) | 2 µM (≈ 0.651 µg/mL) | 2 µM (≈ 0.651 µg/mL) | 1000 µM (≈ 325 µg/mL) | 1000 µM (≈ 325 µg/mL) | 198 µM | 
5 | CCCCCNC(=O)NNC(=O)c1cc([N+](=O)[O-])cc([N+](=O)[O-])c1 [Compound 4e, 2-(3,5-Dinitrobenzoyl)-N-pentylhydrazine-1-carboxamide] | 1 µM (≈ 0.339 µg/mL) | 1 µM (≈ 0.339 µg/mL) | 2 µM (≈ 0.679 µg/mL) | 1 µM (≈ 0.339 µg/mL) | 1 µM (≈ 0.339 µg/mL) | 1000 µM (≈ 339 µg/mL) | 1000 µM (≈ 339 µg/mL) | 134 µM | 
6 | CCCCCCNC(=O)NNC(=O)c1cc([N+](=O)[O-])cc([N+](=O)[O-])c1 [Compound 4f, 2-(3,5-Dinitrobenzoyl)-N-hexylhydrazine-1-carboxamide] | 1 µM (≈ 0.353 µg/mL) | 1 µM (≈ 0.353 µg/mL) | 1 µM (≈ 0.353 µg/mL) | 1 µM (≈ 0.353 µg/mL) | 1 µM (≈ 0.353 µg/mL) | 250 µM (≈ 88.3 µg/mL) | 250 µM (≈ 88.3 µg/mL) | 119 µM | 125 to 250 µM (≈ 44.2 to 88.3 µg/mL)
7 | CCCCCCCNC(=O)NNC(=O)c1cc([N+](=O)[O-])cc([N+](=O)[O-])c1 [Compound 4g, 2-(3,5-Dinitrobenzoyl)-N-heptylhydrazine-1-carboxamide] | 1 µM (≈ 0.367 µg/mL) | 1 µM (≈ 0.367 µg/mL) | 1 µM (≈ 0.367 µg/mL) | 0.5 µM (≈ 0.184 µg/mL) | 0.5 µM (≈ 0.184 µg/mL) | 125 µM (≈ 45.9 µg/mL) | 250 µM (≈ 91.8 µg/mL) | 117 µM | 125 to 250 µM (≈ 45.9 to 91.8 µg/mL)
8 | CCCCCCCCCCCCCCCCNC(=O)NNC(=O)c1cc([N+](=O)[O-])cc([N+](=O)[O-])c1 [Compound 4p, 2-(3,5-Dinitrobenzoyl)-N-hexadecylhydrazine-1-carboxamide] | 8 µM (≈ 3.95 µg/mL) | 16 µM (≈ 7.9 µg/mL) | 16 µM (≈ 7.9 µg/mL) | 8 µM (≈ 3.95 µg/mL) | 16 µM (≈ 7.9 µg/mL) | > 1000 µM | > 1000 µM |  | 
9 | CCCCCCCCCCCCCCCCCNC(=O)NNC(=O)c1cc([N+](=O)[O-])cc([N+](=O)[O-])c1 [Compound 4q, 2-(3,5-Dinitrobenzoyl)-N-heptadecylhydrazine-1-carboxamide] | 8 µM (≈ 4.06 µg/mL) | 16 µM (≈ 8.12 µg/mL) | 16 µM (≈ 8.12 µg/mL) | 8 µM (≈ 4.06 µg/mL) | 16 µM (≈ 8.12 µg/mL) | > 500 µM | > 500 µM |  | 
10 | CCCCCCCCCCCCCCCCCCNC(=O)NNC(=O)c1cc([N+](=O)[O-])cc([N+](=O)[O-])c1 [Compound 4r, 2-(3,5-Dinitrobenzoyl)-N-octadecylhydrazine-1-carboxamide] | 8 µM (≈ 4.17 µg/mL) | 16 µM (≈ 8.35 µg/mL) | 16 µM (≈ 8.35 µg/mL) | 8 µM (≈ 4.17 µg/mL) | 16 µM (≈ 8.35 µg/mL) | > 1000 µM | > 1000 µM |  | 
11 | CNc1nnc(-c2cc([N+](=O)[O-])cc([N+](=O)[O-])c2)o1 [Compound 5a, 5-(3,5-Dinitrophenyl)-N-methyl-1,3,4-oxadiazol-2-amine] | 16 µM (≈ 4.24 µg/mL) | 32 µM (≈ 8.49 µg/mL) | 32 µM (≈ 8.49 µg/mL) | 8 µM (≈ 2.12 µg/mL) | 16 µM (≈ 4.24 µg/mL) | 500 µM (≈ 133 µg/mL) | 500 µM (≈ 133 µg/mL) |  | 
12 | CCNc1nnc(-c2cc([N+](=O)[O-])cc([N+](=O)[O-])c2)o1 [Compound 5b, 5-(3,5-Dinitrophenyl)-N-ethyl-1,3,4-oxadiazol-2-amine] | 16 µM (≈ 4.47 µg/mL) | 32 µM (≈ 8.93 µg/mL) | 32 µM (≈ 8.93 µg/mL) | 8 µM (≈ 2.23 µg/mL) | 16 µM (≈ 4.47 µg/mL) | > 1000 µM | > 1000 µM |  | > 1000 µM
13 | CCCNc1nnc(-c2cc([N+](=O)[O-])cc([N+](=O)[O-])c2)o1 [Compound 5c, 5-(3,5-Dinitrophenyl)-N-propyl-1,3,4-oxadiazol-2-amine] | 4 µM (≈ 1.17 µg/mL) | 8 µM (≈ 2.35 µg/mL) | 16 µM (≈ 4.69 µg/mL) | 4 µM (≈ 1.17 µg/mL) | 4 µM (≈ 1.17 µg/mL) | > 500 µM | > 500 µM |  | 
14 | CCCCCCCCCCCCCCCCNc1nnc(-c2cc([N+](=O)[O-])cc([N+](=O)[O-])c2)o1 [Compound 5p, 5-(3,5-Dinitrophenyl)-N-hexadecyl-1,3,4-oxadiazol-2-amine] | 2 µM (≈ 0.951 µg/mL) | 4 µM (≈ 1.9 µg/mL) | 8 µM (≈ 3.8 µg/mL) | 8 µM (≈ 3.8 µg/mL) | 8 µM (≈ 3.8 µg/mL) | 8 µM (≈ 3.8 µg/mL) | 16 µM (≈ 7.61 µg/mL) |  | 
15 | CCCCCCCCCCCCCCCCCNc1nnc(-c2cc([N+](=O)[O-])cc([N+](=O)[O-])c2)o1 [Compound 5q, 5-(3,5-Dinitrophenyl)-N-heptadecyl-1,3,4-oxadiazol-2-amine] | 8 µM (≈ 3.92 µg/mL) | 16 µM (≈ 7.83 µg/mL) | 32 µM (≈ 15.7 µg/mL) | 32 µM (≈ 15.7 µg/mL) | > 32 µM | 32 µM (≈ 15.7 µg/mL) | 64 µM (≈ 31.3 µg/mL) |  | 
16 | CCCCCCCCCCCCCCCCCCNc1nnc(-c2cc([N+](=O)[O-])cc([N+](=O)[O-])c2)o1 [Compound 5r, 5-(3,5-Dinitrophenyl)-N-octadecyl-1,3,4-oxadiazol-2-amine] | 64 µM (≈ 32.2 µg/mL) | 64 µM (≈ 32.2 µg/mL) | 64 µM (≈ 32.2 µg/mL) | > 32 µM | > 32 µM | > 1000 µM | > 1000 µM |  | > 1000 µM
17 | O=[N+]([O-])c1cc(-c2nnc(NCc3ccccc3)o2)cc([N+](=O)[O-])c1 [Compound 7a, N-Benzyl-5-(3,5-dinitrophenyl)-1,3,4-oxadiazol-2-amine] | 0.5 µM (≈ 0.171 µg/mL) | 1 µM (≈ 0.341 µg/mL) | 1 µM (≈ 0.341 µg/mL) | 0.125 µM (≈ 0.0427 µg/mL) | 0.25 µM (≈ 0.0853 µg/mL) | 4 µM (≈ 1.37 µg/mL) | 4 µM (≈ 1.37 µg/mL) |  | 
18 | COc1ccc(CNc2nnc(-c3cc([N+](=O)[O-])cc([N+](=O)[O-])c3)o2)cc1 [Compound 7b, 5-(3,5-Dinitrophenyl)-N-(4-methoxybenzyl)-1,3,4-oxadiazol-2-amine] | ≤ 0.03 µM | ≤ 0.03 µM | ≤ 0.03 µM | ≤ 0.03 µM | ≤ 0.03 µM | 2 µM (≈ 0.743 µg/mL) | 2 µM (≈ 0.743 µg/mL) |  | 
19 | O=[N+]([O-])c1cc(-c2nnc(NCc3ccc(Cl)cc3)o2)cc([N+](=O)[O-])c1 [Compound 7c, N-(4-Chlorobenzyl)-5-(3,5-dinitrophenyl)-1,3,4-oxadiazol-2-amine] | 0.125 µM (≈ 0.047 µg/mL) | 0.125 µM (≈ 0.047 µg/mL) | 0.25 µM (≈ 0.0939 µg/mL) | 0.125 µM (≈ 0.047 µg/mL) | 0.125 µM (≈ 0.047 µg/mL) | 1 µM (≈ 0.376 µg/mL) | 2 µM (≈ 0.751 µg/mL) |  | 
20 | O=[N+]([O-])c1cc(-c2nnc(NCc3ccc(Cl)cc3Cl)o2)cc([N+](=O)[O-])c1 [Compound 7d, N-(2,4-Dichlorobenzyl)-5-(3,5-dinitrophenyl)-1,3,4-oxadiazol-2-amine] | 0.06 µM (≈ 0.0246 µg/mL) | 0.125 µM (≈ 0.0513 µg/mL) | 0.125 µM (≈ 0.0513 µg/mL) | 0.06 µM (≈ 0.0246 µg/mL) | 0.125 µM (≈ 0.0513 µg/mL) | 1 µM (≈ 0.41 µg/mL) | 1 µM (≈ 0.41 µg/mL) |  | 
21 | O=[N+]([O-])c1cc(-c2nnc(NCc3ccc(Br)cc3)o2)cc([N+](=O)[O-])c1 [Compound 7e, N-(4-Bromobenzyl)-5-(3,5-dinitrophenyl)-1,3,4-oxadiazol-2-amine] | 0.25 µM (≈ 0.105 µg/mL) | 0.5 µM (≈ 0.21 µg/mL) | 0.5 µM (≈ 0.21 µg/mL) | 0.25 µM (≈ 0.105 µg/mL) | 0.25 µM (≈ 0.105 µg/mL) | 2 µM (≈ 0.84 µg/mL) | 4 µM (≈ 1.68 µg/mL) |  | 
22 | COc1ccc(CNc2nnc(-c3cc([N+](=O)[O-])cc([N+](=O)[O-])c3)s2)cc1 [Compound 8b, 5-(3,5-Dinitrophenyl)-N-(4-methoxybenzyl)-1,3,4-thiadiazol-2-amine] | 0.06 µM (≈ 0.0232 µg/mL) | 0.06 µM (≈ 0.0232 µg/mL) | 0.125 µM (≈ 0.0484 µg/mL) | ≤ 0.03 µM | ≤ 0.03 µM | 4 µM (≈ 1.55 µg/mL) | 4 µM (≈ 1.55 µg/mL) |  | 
23 | O=[N+]([O-])c1cc(-c2nnc(NCc3ccc(Cl)cc3)s2)cc([N+](=O)[O-])c1 [Compound 8c, N-(4-Chlorobenzyl)-5-(3,5-dinitrophenyl)-1,3,4-thiadiazol-2-amine] | 0.06 µM (≈ 0.0235 µg/mL) | 0.125 µM (≈ 0.049 µg/mL) | 0.125 µM (≈ 0.049 µg/mL) | ≤ 0.03 µM | ≤ 0.03 µM | 2 µM (≈ 0.784 µg/mL) | 2 µM (≈ 0.784 µg/mL) |  | 
24 | O=[N+]([O-])c1cc(-c2nnc(NCc3ccc(Cl)cc3Cl)s2)cc([N+](=O)[O-])c1 [Compound 8d, N-(2,4-Dichlorobenzyl)-5-(3,5-dinitrophenyl)-1,3,4-thiadiazol-2-amine] | 0.25 µM (≈ 0.107 µg/mL) | 0.5 µM (≈ 0.213 µg/mL) | 0.5 µM (≈ 0.213 µg/mL) | 0.125 µM (≈ 0.0533 µg/mL) | 0.125 µM (≈ 0.0533 µg/mL) | 2 µM (≈ 0.852 µg/mL) | 2 µM (≈ 0.852 µg/mL) |  | 
25 | CCCCCCCCCCCCSc1nnc(-c2cc([N+](=O)[O-])cc([N+](=O)[O-])c2)o1 [Compound 10, 2-(3,5-Dinitrophenyl)-5-(dodecylthio)-1,3,4-oxadiazole] | 2 µM (≈ 0.873 µg/mL) | 4 µM (≈ 1.75 µg/mL) | 8 µM (≈ 3.49 µg/mL) | 8 µM (≈ 3.49 µg/mL) | 8 µM (≈ 3.49 µg/mL) | 500 µM (≈ 218 µg/mL) | 500 µM (≈ 218 µg/mL) |  | 
